Among the data in patent US20100331348A1, “TROPANE DERIVATIVES USEFUL AS PESTICIDES” (SYNGENTA CROP PROTECTION, INC., priority 2007, published 2010) are pest or weed control and inhibition of growth values, retold here.

SMILES strings stand for the structures. Read-outs that look alike come from different tables or passages of the source.

One assay has as its system Aedes aegypti. Kind of assay: Aedes aegypti (Yellow fever mosquito) larvae test. In kind it is in vivo. As to conditions: 48 h.
Assay [1] has as its system Erysiphe graminis f.sp. tritici. Kind of assay: Erysiphe graminis f.sp. tritici (wheat powdery mildew) leaf disk assay. It counts as in vivo. As to conditions: Blumeria graminis, foliar, 96 h, preventive, four days after inoculation, read-out: control of fungal infection, Erysiphe graminis fsp. tritici.
Assay [2] has as its system Puccinia recondita f.sp. tritici. Kind of assay: Puccinia recondita f.sp. tritici (wheat brown rust) leaf disk assay. In kind it is in vivo. The note with it: foliar, 216 h, preventive, nine days after inoculation, read-out: control of fungal infection, Puccinia recondita f.sp. tritici.
For a further assay, the system named is Pyricularia oryzae. Briefly: whole plant or invertebrate. In kind it is in vivo. The note with it: foliar, 96 h.
A further assay concerns Phytophthora infestans. Kind of assay: whole plant or invertebrate. It counts as in vivo. As to conditions: foliar, 96 h, read-out: control of fungal infection, Phytophthora infestans.
The test system of another assay is Pythium ultimum. Briefly: Pythium ultimum (Damping off) growth inhibition in potato dextrose broth. In kind it is cell-based. The note with it: Globisporangium ultimum, 48 hours, read-out: control of fungal infection, Pythium ultimum.
The subject of the next assay is Myzus persicae. Briefly: Myzus persicae (Green peach aphid) sunflower leaf disc test. As to conditions: foliar, 144 h, read-out: control of Myzus persicae.
The next assay has as its system Plutella xylostella. Briefly: Plutella xylostella (Diamond back moth) artificial diet test. As to conditions: 120 h, read-out: control of Plutella xylostella.
A further assay deals with Spodoptera littoralis. Kind of assay: Spodoptera littoralis (Egyptian cotton leafworm) cotton leaf disc test. The note with it: in Gossypium hirsutum, foliar, 72 h, read-out: control of Spodoptera littoralis.
The subject of another assay is Septoria tritici. Kind of assay: Septoria tritici (leaf blotch) growth inhibition in nutrient broth. As to conditions: Zymoseptoria tritici, 72 hrs, read-out: control of fungal infection, Septoria tritici. In kind it is cell-based.
Another assay relates to Heliothis virescens. Briefly: Heliothis virescens (Tobacco budworm) egg test on artificial diet. As to conditions: 96 h, read-out: control of Heliothis virescens.
In the next assay the test system is Tetranychus urticae. The note with it: foliar, 192 h, read-out: control of Tetranychus urticae.

Take `Fc1cc(Br)ccc1CON=C1CC2CCC(C1)N2c1ncnc2sccc12` [Example 5.232]: the pest or weed control at 2 ppm with Aedes aegypti is no less than 80%. Also, the pest or weed control at 200 ppm in assay [1] is no less than 80%; in assay [2] it was no less than 80%; in the assay on Pyricularia oryzae (read-out: control of fungal infection, Pyricularia oryzae (at least 60% list)), no less than 60%; in the assay on Phytophthora infestans, no less than 80%; in the assay with Myzus persicae it was no less than 80%; in the assay with Plutella xylostella it was no less than 80%. Further, the pest or weed control at 200 ppm in the assay on Spodoptera littoralis was no less than 80%. Further, the inhibition of growth at 200 ppm in the assay with Pythium ultimum was no less than 60%.

In the assay on Aedes aegypti, `CCc1ncnc(N2C3CCC2CC(=CCOc2ccc(C)nc2)C3)c1Cl` [Example 3.14] had a pest or weed control at 2 ppm of no less than 80%. The pest or weed control at 200 ppm in assay [2] was no less than 80%; in the assay on Pyricularia oryzae (read-out: control of fungal infection, Pyricularia oryzae (at least 80% list)), no less than 80%; in the assay with Myzus persicae it was no less than 80%; in the assay on Heliothis virescens, no less than 80%; with Tetranychus urticae, no less than 80%; in the assay with Spodoptera littoralis, no less than 80%. In the assay on Septoria tritici, the inhibition of growth at 200 ppm is no less than 60%.
